Structures are written as SMILES.

The test system of this assay is P. falciparum HB3 in RBCs, SYBR Green DNA fluorescence. Description: antimalarial activity against intraerythrocytic HB3 parasites – HB3 strain, red blood cells, SYBR Green, cherry-picked, dose response (AID 652041).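 Further: parasites exposed to compound for 72 hours before the DNA read.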
With `C=CCNC(=S)N1CCC(Cc2ccccc2)CC1`, the AC35 was 28 µM.
The figure for `CCCCNc1c(-c2cccc(-c3ccc(OC)cc3)c2)nc2ccc(C)cn12` is 1.65 µM.
As for `Cn1nc(C(F)(F)F)c(C#N)c1N1CCN(c2ccc(F)cc2)CC1`, the figure is 18.7 µM.
Consider `O=C(/C(=N/N=C/c1ccc(O)c(O)c1O)c1ccccc1)c1ccccc1`, for which the AC35 was 3.7 µM.
As for `O=[N+]([O-])c1cccc(C=NNc2ccc3ccccc3n2)c1O`, the figure is 6.73 µM; as for `COc1cc([N+](=O)[O-])cc(/C=N/NC(=O)c2cncc(Br)c2)c1O`, 16.8 µM; as for `O=C(Nc1cc(Oc2ccc(Cl)cc2)cc([N+](=O)[O-])c1)c1ccco1`, 2.14 µM.
The figure for `CCCCCOc1ccc(CSc2n[nH]c(C)n2)cc1` is 8.7 µM; for `O=C(Nc1nnc(-c2cccs2)o1)c1cccc(Oc2ccccc2)c1` it is 19.4 µM; for `COc1ccc(/C=N/Nc2cc(C)nc(-n3nc(C)cc3C)n2)cc1` it is 1.54 µM.
The figure for `CC(=O)NC(c1cccc([N+](=O)[O-])c1)c1ccc2cccnc2c1O` (stereo not given) is 1.77 µM; for `C=C(C)COc1ccc(-c2[nH]ncc2-c2ccc(Br)cc2)c(O)c1` it is 2.25 µM.
As for `C=CCn1c(-c2cc(-c3ccc(C)cc3)nc3ccccc23)n[nH]c1=S`, the AC35 is 14.1 µM.
Regarding `O=C(NCCC1=CCCCC1)c1c(O)nc2sccn2c1=O`, the AC35 was 16.2 µM.
As for `CC(=O)C1=C(c2ccc(Br)cc2)C(=O)c2ccccc2C1=O`, the figure is 0.472 µM.
As to `COc1ccc(-c2oc3ccccc3c2C#Cc2cncn2C)cc1`, the AC35 was 0.87 µM.
The figure for `FC(F)(F)c1nc(SCc2ccc(Cl)cc2Cl)n[nH]1` is 40 µM; for `CCn1c2ccc(C)cc2c2nc3cc(C(=O)O)ccc3nc21` it is 37.1 µM.
For the compound `CCC(C)c1ccc(NC(=S)NCCn2cc(Br)cn2)cc1` (stereo not given), the AC35 is 10.5 µM.
In the case of `COc1cccc(CC(=O)Nc2ccc3nc(C)sc3c2)c1`, the AC35 is 43.9 µM.
As for `O=C(Nc1nc(-c2ccccn2)cs1)c1ccc(Br)s1`, the figure is 0.662 µM; as for `CCCC(C)Sc1nc2c([nH]1)c(=S)n(C)c(=O)n2C` (stereo not given), 6.67 µM; as for `CC(=O)Nc1cccc(NC(=O)CSc2ccc(-c3ccccn3)nn2)c1`, 17 µM.
As for `CN1CCN(C(=O)c2cc(COc3ccc(F)cc3Cl)on2)CC1c1ccccc1` (stereo not given), the figure is 33.5 µM; as for `O=S1OC(c2ccccc2)c2cc(Cl)ccc21` (stereo not given), 16.8 µM.
The figure for `O=Cc1cc(N=Nc2ccccc2Cl)ccc1O` is 2.27 µM; for `O=c1cc(CSc2ccc(Cl)cc2)nc(-c2ccccn2)[nH]1` it is 2.3 µM; for `Cc1ccc(Sc2cc(C)nc(-c3ccccn3)n2)cc1` it is 6.03 µM.
Consider `O=C(OCC(=O)C12CC3CC(CC(C3)C1)C2)c1ccc(O)cc1`, for which the AC35 was 23.4 µM.
The figure for `O=c1c(CO)cc(CO)cc(CO)c1O` is 20.8 µM.
The figure for `O=c1c(O)c(-c2ccccc2)oc2ccccc12` is 21.6 µM.
As for `c1ccc(C(=NNc2nc3ccccc3s2)c2ccccn2)cc1`, the figure is 2.22 µM; as for `Cc1cc(/C=C2\SC(=S)N(C)C2=O)c(C)n1-c1ccc(O)cc1`, 9.39 µM; as for `O=C(Nc1nnc(-c2ccccc2)o1)c1ccc(Cl)cc1`, 10.7 µM.
As to `Cc1cc(-c2ccccc2)n(-c2cc(N/N=C/c3ccccc3O)ncn2)n1`, the AC35 is 3.85 µM.
As for `CN(c1ccccc1)c1nc(N2CCCC2)nc(-n2ccnc2)n1`, the figure is 11.1 µM; as for `Cc1ccoc1C(=O)Nc1cccc(Oc2ccccc2)c1`, 6.15 µM.
As to `CCOC(=O)c1cnc(-n2nc(C)cc2C)nc1NC1CCCC1`, the AC35 was 4.23 µM.
Consider `O=c1c2ccccc2nc(-c2cccc(Cl)c2)n1O`, for which the AC35 is 28.2 µM.
Take `Cc1ccc(Sc2ccc(NC(=O)CCl)cc2)cc1C`: the AC35 is 0.321 µM.
The figure for `Cc1cc(Cl)ccc1C(=O)C1CCCN(C(=O)c2cncs2)C1` (stereo not given) is 33.5 µM.
As for `O=C(COc1ccccc1F)Nc1nc(-c2ccccn2)cs1`, the figure is 12 µM; as for `Nc1cc2nc3ccccc3oc-2cc1=O`, 1.01 µM.
`CCc1cc(SC#N)cc(C)c1NC(=O)CCl`: the AC35 was 7.66 µM.
As for `Nc1nc(-c2ccc(Oc3ccccc3)cc2)cs1`, the figure is 30.3 µM.
For `CCCc1cc(C(N)=O)c(NC(=O)c2cc(C)on2)s1`, the AC35 is 39.7 µM.
Consider `CC[n+]1c(/C=C/C=C/c2ccc(N(C)C)cc2)sc2ccccc21`, for which the AC35 was 2.68 µM.
As for `O=C(O)c1ccccc1NC(c1ccccc1)c1ccc2cccnc2c1O` (stereo not given), the figure is 6.46 µM; as for `CC(/C=N/n1c(COc2ccccc2)n[nH]c1=S)=C\c1ccccc1`, 42.2 µM.
As to `O=C(c1ccccc1)c1ccc(Cn2cc(-c3ccccc3)nn2)cc1`, the AC35 was 40.3 µM.
The figure for `COc1ccc(C(=O)On2c(-c3ccc(Br)cc3)nc3ccccc3c2=O)cc1` is 9.45 µM.
Turning to `Cc1ccc(Cl)cc1NC1=C/C(=N\S(=O)(=O)c2cccs2)c2ccccc2C1=O`, the AC35 was 0.119 µM.
Turning to `CC1=CC(C)(C)N(S(=O)(=O)c2ccc(C)cc2)c2ccc(C)cc21`, the AC35 is 18.4 µM.
The figure for `CCN(CC)c1ccc(/C=N/NC(=O)c2c(Cl)cnn2C)c(O)c1` is 2.66 µM.
For `Clc1ccc(C(Cn2ccnc2)OCc2c(Cl)cccc2Cl)c(Cl)c1` (stereo not given), the AC35 was 2.36 µM.
Consider `C=CCc1ccc(O)c(-c2ccc(O)c(CC=C)c2)c1`, for which the AC35 is 14.7 µM.
As for `Cc1cc(Nc2ccccc2)nn1C(=O)c1ccccc1`, the AC35 is 43.1 µM.
Turning to `COc1cccc(/C=N/Nc2ncnc3scc(-c4ccccc4)c23)c1O`, the AC35 is 1.7 µM.
For the compound `Cc1nc(-c2ccccn2)nc(N(C)c2ccccc2)c1Cl`, the AC35 was 6.1 µM.
For `CNc1ccc2oc(C[C@H]3O[C@@]4(CC[C@H]3C)O[C@H]([C@H](C)C(=O)c3ccc[nH]3)[C@H](C)C[C@H]4C)nc2c1C(=O)O`, the AC35 is 0.833 µM.
The figure for `CCCn1nc(C(=O)N2CCN(S(=O)(=O)c3ccc(C)c(C)c3)CC2)c2ccccc2c1=O` is 8.13 µM.
The figure for `CCc1ccc(OCc2n[nH]c(=S)n2Cc2ccccc2)cc1` is 34.4 µM; for `O=C(NCC1CC1(Cl)Cl)Nc1ccc(Cl)c(Cl)c1` (stereo not given) it is 5.48 µM; for `C[C@@]12CCC3[C@@](CCC4[C@@]3(C)CCC[C@@]4(C)C(=O)NCc3ccccc3)(CC1=O)C2` (stereo not given in full) it is 21.7 µM.
`CCC(NC(=S)NCc1ccc(F)cc1)c1ccc(C(C)C)cc1` (stereo not given): the AC35 was 11.3 µM.
The figure for `c1ccc(-c2ccc(SCc3cccnc3)nn2)nc1` is 35.5 µM; for `C=C(C)COc1ccc(-c2[nH]ncc2-c2ccccc2)c(O)c1` it is 1.89 µM; for `Cc1csc(NC(=O)C(C)Oc2ccc(Cl)cc2C)n1` (stereo not given) it is 23 µM.
For `Cc1cccc2sc(NNC(=O)c3ccc(S(=O)(=O)N4CCCC(C)C4)cc3)nc12` (stereo not given), the AC35 is 4.44 µM.
As for `CCC(=O)NC(c1ccco1)c1cc(Cl)c2cccnc2c1O` (stereo not given), the figure is 0.185 µM.
For the compound `O/N=C(\c1ccc(Cl)cc1)c1cc2ccccc2o1`, the AC35 was 16.4 µM.
The figure for `CCCCCCC(Cl)(Cn1ccnc1)c1ccccc1` (stereo not given) is 3.48 µM.
The figure for `C=CCOC(Cn1ccnc1)c1ccc(Cl)cc1Cl` (stereo not given) is 7.38 µM; for `O=C(CC1CC2CCC1C2)Nc1nc(-c2ccccn2)cs1` (stereo not given) it is 3.99 µM; for `Cc1cccc(Oc2nc(-c3ccccn3)nc3ccccc23)c1` it is 6.06 µM.
As for `FC(F)(F)c1cccc(N2CCc3cn[nH]c32)c1`, the figure is 28.4 µM; as for `CC(NC(=S)NC1CCC(C(C)(C)C)CC1)c1ccccc1` (stereo not given), 8.88 µM.
As to `O=C(CSc1ccc(-c2ccccn2)nn1)c1ccccc1`, the AC35 is 28 µM.
With `CC1=CC(=O)C=C(C)C1=NOS(=O)(=O)c1ccccc1`, the AC35 is 5.53 µM.
The figure for `Nc1nc(-c2ccccc2)c(-c2ccc([N+](=O)[O-])cc2)s1` is 39.6 µM; for `CCCCC(=O)NC(c1ccco1)c1cc(Cl)c2cccnc2c1O` (stereo not given) it is 1.62 µM.
The figure for `O=C(N/N=C/c1cc(Cl)cc([N+](=O)[O-])c1O)c1ccccc1NS(=O)(=O)c1cccs1` is 41.5 µM; for `COc1cccc(/C=N/Nc2ncnc(Cl)c2N)c1O` it is 0.942 µM; for `O=C(c1ccccc1)c1coc2c1C(=O)c1ccccc1C2=O` it is 1.49 µM.
As for `O=C(O)CSc1nc(-c2ccc(Cl)cc2)nc2c1oc1ccccc12`, the AC35 is 28.6 µM.
As for `Cc1cc(C(=O)COC(=O)Cc2n[nH]c(=O)c3ccccc23)c(C)n1-c1cccc(C(F)(F)F)c1`, the figure is 4.22 µM; as for `CCCC1CCC(c2ccc(/C(N)=N/O)cc2)CC1` (stereo not given), 24 µM; as for `CC12CC3(C)CC(C)(C1)CC(NC(=O)N1CCCC1)(C2)C3`, 14.9 µM.
`CCCCCCSc1ccc(-c2nc3ccccn3c2NCCCC)cc1`: the AC35 is 6.94 µM.
Take `COc1cccc(/C=N/NC(=O)c2nc(-c3ccccc3)cc(-c3ccccc3)n2)c1O`: the AC35 is 7.16 µM.
The figure for `C(=C1c2ccccc2-c2ccccc21)c1ccncc1` is 18.2 µM; for `CCc1ccc(CN(C)C(=O)c2cc(COc3cccc(C(F)(F)F)c3)on2)nc1` it is 29.1 µM.
For `Cc1cc(C)c(C(=O)CC(=O)c2cccnc2)c(C)c1`, the AC35 is 8.29 µM.
`O=C1OCC(CO)(CO)N=C1NNc1ccc(Cl)c(Cl)c1`: the AC35 is 19.7 µM.
As for `S=C(NCc1ccco1)Nc1ccc(Oc2ccc(Cl)cc2)cc1`, the figure is 16.8 µM; as for `COc1cnc(-c2ccccn2)nc1Sc1ccccc1`, 9.03 µM.
The figure for `COc1cc(/C=N/O)cc(Br)c1OCc1cccc(Cl)c1` is 28.1 µM; for `O=C1c2cccc(Cl)c2C(=O)c2c1cccc2N1CCCC1` it is 20.9 µM.
The figure for `O/N=C/c1cc(Br)ccc1OCc1ccccc1F` is 29.2 µM; for `CC(C)N1CCN(c2ccc(OCC3COC(Cn4cncn4)(c4ccc(Cl)cc4Cl)O3)cc2)CC1` (stereo not given) it is 4.53 µM.
On to `CC(C)(C)C(=O)C(Oc1ccc(Cl)cc1)n1cncn1` (stereo not given), for which the AC35 is 36.1 µM.
`COc1ccc(O)c(C(=O)CC(=O)c2ccc(F)cc2)c1`: the AC35 was 16.1 µM.
The figure for `Cc1ccc(C)c(/C=C/C(=O)c2ccccc(=O)c2O)c1` is 8.27 µM; for `CCCCCCCc1ccc(-c2ccc(O)cc2)nc1` it is 4.88 µM.
As for `COc1ccc(O)c(C(=O)CC(=O)c2ccccc2C)c1`, the figure is 13.9 µM.

Values taken from PubChem BioAssay AID652041 (Broad Institute, 2013).
